US12344600B2, “c-Myc mRNA translation modulators and uses thereof in the treatment of cancer” (Anima Biotech Inc., priority 2022, dated 2025)

test system: c-Myc; experiment: c-Myc immunofluorescence assay; format: cell-based, human; conditions: A549 cells, 24 hours, anti-c-Myc immunofluorescence
Procedure: A549 human non-small cell lung carcinoma cells were treated for 24 hours with increasing compound concentration, cells were fixed and stained with a nuclei stain (DAPI) and anti-c-Myc fluorescent antibody. The c-Myc signal was quantified by image analysis, and data was exported and analyzed using TIBCO Spotfire® (TIBCO Corporation). Dose response curves were generated and fitted with logaristic regression to calculate potency (EC50 values). Potency values are presented in Table 2 for all compounds and are shown for selected compounds (FIG. 3).
A549 cells were grown in 384-wells plates (Perkin Elmer, Cat. 6057300) for 48 hours, treated with compounds and then fixed for 20 min in 4% paraformaldehyde. After that permeabilization was done using 0.1% Triton X-100 in PBS for 20 min. Primary anti-c-Myc antibody (Abcam, ab32072) staining was performed for 90 min at room temperature. Cells then were washed twice with PBS and incubated with secondary antibody (Abcam, ab150075) for 90 min at room temperature. Nuclei were stained with DAPI for 10 min and washed twice with PBS.
Cell images were taken with Operetta (Perkin Elmer, USA), a wide-field fluorescence microscope at 20× magnification. After acquisition, the images were transferred to Columbus software (Perkin-Elmer) for image analysis. In Columbus, cells were identified by their nucleus, using the “Find Nuceli” module and cytoplasm was detected based on the secondary antibody channel. Subsequently, the fluorescent signal was enumerated in the identified cell region. Then data was exported to a data analysis and visualization software, Tibco Spotfire, USA.

Structure (SMILES)	Myc Efficacy (−LogEC50)
COc1ccc(-c2noc(N3CCC(C(=O)NCC4CCN(C5CCCOC5)C4)CC3)n2)cc1 (stereo not shown) [Compound 396, 1-(3-(4-methoxyphenyl)-1,2,4-oxadiazol-5-yl)-N-((1-(tetrahydro-2H-pyran-3-yl)pyrrolidin-3-yl)methyl)piperidine-4-carboxamide]	+ (+ >3 and <5)
COc1ccc(-c2noc(N3CCC(C(=O)NCC4CCN(Cc5cc(C)co5)C4)CC3)n2)cc1 (stereo not shown) [Compound 382, 1-(3-(4-methoxyphenyl)-1,2,4-oxadiazol-5-yl)-N-((1-((4-methylfuran-2-yl)methyl)pyrrolidin-3-yl)methyl)piperidine-4-carboxamide]	++ (++ ≥5 and <6)
COc1ccc(-c2noc(C3CCC(C(=O)NCC4CCN(CCO)C4)CC3)n2)cc1 (stereo not shown) [Compound 215, (1s,4s)-N-((1-(2-hydroxyethyl)pyrrolidin-3-yl)methyl)-4-(3-(4-methoxyphenyl)-1,2,4-oxadiazol-5-yl)cyclohexane-1-carboxamide]	+ (+ >3 and <5)
COc1ccc(-c2noc(N3CCC(C(=O)NCc4ccccc4OC(F)F)CC3)n2)cc1 [Compound 284, N-(2-(difluoromethoxy)benzyl)-1-(3-(4-methoxyphenyl)-1,2,4-oxadiazol-5-yl)piperidine-4-carboxamide]	+ (+ >3 and <5)
COc1ccc(-c2noc(N3CCC(C(=O)NCC4CCN(CC5CCN(C)CC5)C4)CC3)n2)cc1 (stereo not shown) [Compound 353, 1-(3-(4-methoxyphenyl)-1,2,4-oxadiazol-5-yl)-N-((1-((1-methylpiperidin-4-yl)methyl)pyrrolidin-3-yl)methyl)piperidine-4-carboxamide]	++ (++ ≥5 and <6)
COc1ccc(-c2noc(N3CCN(C(=O)N4CCOCC4)CC3)n2)cc1 [Compound 144, (4-(3-(4-methoxyphenyl)-1,2,4-oxadiazol-5-yl)piperazin-1-yl)(morpholino)methanone]	+ (+ >3 and <5)
Cc1ccc(CN2CCC(CNC(=O)C3CCN(c4nc(-c5cccc(O)c5)no4)CC3)C2)cc1 (stereo not shown) [Compound 199, 1-(3-(3-hydroxyphenyl)-1,2,4-oxadiazol-5-yl)-N-((1-(4-methylbenzyl)pyrrolidin-3-yl)methyl)piperidine-4-carboxamide]	+ (+ >3 and <5)
COc1ccc(-c2noc(N3CCC(C(=O)NCC4CCN(C(C)(C)C)C4)CC3)n2)cc1 (stereo not shown) [Compound 250, N-((1-(tert-butyl)pyrrolidin-3-yl)methyl)-1-(3-(4-methoxyphenyl)-1,2,4-oxadiazol-5-yl)piperidine-4-carboxamide]	+ (+ >3 and <5)
COc1ccc(-c2noc(N3CCC(C(=O)NCCN(C)C4CC4)CC3)n2)cc1 [Compound 314, N-(2-(cyclopropyl(methyl)amino)ethyl)-1-(3-(4-methoxyphenyl)-1,2,4-oxadiazol-5-yl)piperidine-4-carboxamide]	+ (+ >3 and <5)
COc1ccc(-c2noc(N3CCC(C(=O)NCC4CCN(Cc5ncccc5C)C4)CC3)n2)cc1 (stereo not shown) [Compound 350, 1-(3-(4-methoxyphenyl)-1,2,4-oxadiazol-5-yl)-N-((1-((3-methylpyridin-2-yl)methyl)pyrrolidin-3-yl)methyl)piperidine-4-carboxamide]	++ (++ ≥5 and <6)
COc1ccc(-c2noc(N3CCC(C(=O)N[C@@H](CCO)C(C)C)CC3)n2)cc1 [Compound 315, (S)-N-(1-hydroxy-4-methylpentan-3-yl)-1-(3-(4-methoxyphenyl)-1,2,4-oxadiazol-5-yl)piperidine-4-carboxamide]	+ (+ >3 and <5)
COc1ccc(-c2noc(N3CCC(C(=O)NC4(C5CCCCC5)CC4)CC3)n2)cc1 [Compound 292, N-(1-cyclohexylcyclopropyl)-1-(3-(4-methoxyphenyl)-1,2,4-oxadiazol-5-yl)piperidine-4-carboxamide]	+ (+ >3 and <5)
COc1ccc(-c2noc(N3CCC(C(=O)NCC4CCN(Cc5cncc(F)c5)C4)CC3)n2)cc1 (stereo not shown) [Compound 333, N-((1-((5-fluoropyridin-3-yl)methyl)pyrrolidin-3-yl)methyl)-1-(3-(4-methoxyphenyl)-1,2,4-oxadiazol-5-yl)piperidine-4-carboxamide]	+ (+ >3 and <5)
CN1CCC[C@H](CN2CCC(CNC(=O)C3CCN(c4nc(-c5ccc(Cl)cc5)no4)CC3)C2)C1 (stereo partly drawn) [Compound 468, 1-(3-(4-chlorophenyl)-1,2,4-oxadiazol-5-yl)-N-((1-(((S)-1-methylpiperidin-3-yl)methyl)pyrrolidin-3-yl)methyl)piperidine-4-carboxamide]	++ (++ ≥5 and <6)
COc1ccc(-c2noc(N3CCN(C(=O)Nc4ccccc4)CC3)n2)cc1 [Compound 209, 4-(3-(4-methoxyphenyl)-1,2,4-oxadiazol-5-yl)-N-phenylpiperazine-1-carboxamide]	+ (+ >3 and <5)
COc1ccc(-c2noc(N3CCC(C(=O)NCCCN4CCC(Cc5ccccc5)CC4)CC3)n2)cc1 [Compound 152, N-(3-(4-benzylpiperidin-1-yl)propyl)-1-(3-(4-methoxyphenyl)-1,2,4-oxadiazol-5-yl)piperidine-4-carboxamide]	+++ (+++ ≥6)
COc1ccc(-c2cccc(N3CCC(C(=O)NCC4CCN(Cc5ccc(C)cc5)C4)CC3)c2)cc1 (stereo not shown) [Compound 171, 1-(4′-methoxy-[1,1′-biphenyl]-3-yl)-N-((1-(4-methylbenzyl)pyrrolidin-3-yl)methyl)piperidine-4-carboxamide]	++ (++ ≥5 and <6)
COc1ccc(-c2noc(N3CCC(C(=O)NCC4CCN(CC5(C)CCOCC5)C4)CC3)n2)cc1 (stereo not shown) [Compound 377, 1-(3-(4-methoxyphenyl)-1,2,4-oxadiazol-5-yl)-N-((1-((4-methyltetrahydro-2H-pyran-4-yl)methyl)pyrrolidin-3-yl)methyl)piperidine-4-carboxamide]	+ (+ >3 and <5)
COc1ccc(-c2noc(N3CCC(C(=O)NCC4CCN(CC5COC5)C4)CC3)n2)cc1 (stereo not shown) [Compound 408, 1-(3-(4-methoxyphenyl)-1,2,4-oxadiazol-5-yl)-N-((1-(oxetan-3-ylmethyl)pyrrolidin-3-yl)methyl)piperidine-4-carboxamide]	+ (+ >3 and <5)
COc1ccc(-c2noc(N3CCC(C(=O)NCC4CCN(CC5CC(F)(F)C5)C4)CC3)n2)cc1 (stereo not shown) [Compound 393, N-((1-((3,3-difluorocyclobutyl)methyl)pyrrolidin-3-yl)methyl)-1-(3-(4-methoxyphenyl)-1,2,4-oxadiazol-5-yl)piperidine-4-carboxamide]	+ (+ >3 and <5)
COc1ccc(-c2noc(N3CCC(C(=O)NCc4nc5ccccc5o4)CC3)n2)cc1 [Compound 420, N-(benzo[d]oxazol-2-ylmethyl)-1-(3-(4-methoxyphenyl)-1,2,4-oxadiazol-5-yl)piperidine-4-carboxamide]	+ (+ >3 and <5)
COc1ccc(-c2noc(N3CCN(C(=O)NCc4cc5ccccc5[nH]4)CC3)n2)cc1 [Compound 417, N-((1H-indol-2-yl)methyl)-4-(3-(4-methoxyphenyl)-1,2,4-oxadiazol-5-yl)piperazine-1-carboxamide]	++ (++ ≥5 and <6)
Cc1ccc(CN2CC(CNC(=O)C3CCN(c4nc(-c5ccc(C#N)cc5)no4)CC3)CC2=O)cc1 (stereo not shown) [Compound 267, 1-(3-(4-cyanophenyl)-1,2,4-oxadiazol-5-yl)-N-((1-(4-methylbenzyl)-5-oxopyrrolidin-3-yl)methyl)piperidine-4-carboxamide]	++ (++ ≥5 and <6)
COc1ccc(-c2noc(N3CCC(C(=O)NC4CC5(C4)CN(C)C5)CC3)n2)cc1 [Compound 271, 1-(3-(4-methoxyphenyl)-1,2,4-oxadiazol-5-yl)-N-(2-methyl-2-azaspiro[3.3]heptan-6-yl)piperidine-4-carboxamide]	+ (+ >3 and <5)
Cc1ccc(CN2CCC(CNC(=O)C3CCN(c4nc(-c5cccc(Cl)c5)no4)CC3)C2)cc1 (stereo not shown) [Compound 155, 1-(3-(3-chlorophenyl)-1,2,4-oxadiazol-5-yl)-N-((1-(4-methylbenzyl)pyrrolidin-3-yl)methyl)piperidine-4-carboxamide]	++ (++ ≥5 and <6)
COc1ccc(-c2noc(N3CCN(C(=O)NCCCN4CCC(Cc5ccccc5)CC4)CC3)n2)cc1 [Compound 207, N-(3-(4-benzylpiperidin-1-yl)propyl)-4-(3-(4-methoxyphenyl)-1,2,4-oxadiazol-5-yl)piperazine-1-carboxamide]	+++ (+++ ≥6)
COc1ccc(-c2noc(N3CCC(C(=O)NCC4CCN(CC(F)F)C4)CC3)n2)cc1 (stereo not shown) [Compound 367, N-((1-(2,2-difluoroethyl)pyrrolidin-3-yl)methyl)-1-(3-(4-methoxyphenyl)-1,2,4-oxadiazol-5-yl)piperidine-4-carboxamide]	+ (+ >3 and <5)
Cc1ccc(CN2CCC(CNC(=O)C3CCN(c4nc(-c5ccccc5C)no4)CC3)C2)cc1 (stereo not shown) [Compound 188, N-((1-(4-methylbenzyl)pyrrolidin-3-yl)methyl)-1-(3-(o-tolyl)-1,2,4-oxadiazol-5-yl)piperidine-4-carboxamide]	++ (++ ≥5 and <6)
